Patent US20220009976A1, “Peptide Possessing Mesenchymal-Stem-Cell Mobilizing Activity” (StemRIM Inc., priority 2018, published 2022)

Tested on: mesenchymal stem cells
Assay: Solid-phase culture of peripheral blood after administration of HMGB1 peptide 1-44 (earlier experiments of the inventors)
Format: in vivo
Conditions: vs peripheral blood after administration of physiological saline
Text: In addition, the colonies obtained as a result of culturing, on a solid phase, peripheral blood after administration of a peptide consisting of amino acid residues 1-44 of the human HMGB1 protein (hereinafter, HMGB1 peptide 1-44), which has an activity of mobilizing mesenchymal stem cells into peripheral blood, have been confirmed to have adherability to solid phase and self-renewal ability, and to be PDGFRα positive. They have also been confirmed to have a gene expression profile characteristic to mesenchymal stem cells, based on the results of clustering the transcriptome analysis data and performing gene ontology analysis.
Furthermore, it has been confirmed that the number of colonies obtained by solid-phase culture is larger in the peripheral blood after administration of HMGB1 peptide 1-44 than in the peripheral blood after administration of physiological saline.
Therefore, the colonies obtained as a result of culturing peripheral blood on a solid phase are mesenchymal stem cells, and it is considered that an increase in the number of colonies detected in a solid phase culture of peripheral blood indicates an increase in the number of mesenchymal stem cells in the peripheral blood.

## HMGB1 peptide 1-44: peptide consisting of amino acid residues 1-44 of the human HMGB1 protein, which has an activity of mobilizing mesenchymal stem cells into peripheral blood (MGKGDPKKPRGKMSSYAFFVQTCREEHKKKHPDASVNFSEFSKK; UniProt P09429 1-44, looked up, fragment)
  number of colonies obtained by solid-phase culture of peripheral blood: larger
